# Results reported in patent US20250098679A1, “HERBICIDAL PYRIDONE DERIVATIVES” (SYNGENTA CROP PROTECTION AG, priority 2021, published 2025).
# Experiments:
# Assay type in all cases: in vivo
# Details in all cases: evaluated after 13 days
# Setaria faberi (SETFA) [1] = experiment: Pre-emergence Test, Setaria faberi (SETFA)
# [2] = test system: Echinochloa crus-galli (ECHCG); experiment: Pre-emergence Test, Echinochloa crus-galli (ECHCG)
# Zea mays (ZEAMX) [3] = experiment: Pre-emergence Test, Zea mays (ZEAMX)
# [4] = test system: Ipomoea hederacea (IPOHE); experiment: Pre-emergence Test, Ipomoea hederacea (IPOHE)
# [5] = test system: Amaranthus palmeri (AMAPA); experiment: Pre-emergence Test, Amaranthus palmeri (AMAPA)
# [6] = test system: Amaranthus retoflexus (AMARE); experiment: Pre-emergence Test, Amaranthus retoflexus (AMARE)
# Setaria faberi (SETFA) [7] = experiment: Post-emergence Test, Setaria faberi (SETFA); set-up: key to percentage damage caused to the plant, SETFA (five-point scale): 5=81-100%, 4=61-80%, 3=41-60%, 2=21-40%, 1=0-20% damage
# In short: (§1)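 Pots sprayed with compound in acetone/water (50:50) with 0.5% Tween 20, at 1000 g/ha unless noted, glasshouse 24/16 °C, 14 h light, 65% humidity. Damage scored 13 days after spraying on a five-point scale (5=81-100% to 1=0-20%).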
# [8] = test system: Echinochloa crus-galli (ECHCG); experiment: Post-emergence Test, Echinochloa crus-galli (ECHCG); set-up: key to percentage damage caused to the plant, ECHCG (five-point scale): 5=81-100%, 4=61-80%, 3=41-60%, 2=21-40%, 1=0-20% damage
# In short: as §1
# Zea mays (ZEAMX) [9] = experiment: Post-emergence Test, Zea mays (ZEAMX); set-up: key to percentage damage caused to the plant, ZEAMX (five-point scale): 5=81-100%, 4=61-80%, 3=41-60%, 2=21-40%, 1=0-20% damage
# In short: as §1
# [10] = test system: Ipomoea hederacea (IPOHE); experiment: Post-emergence Test, Ipomoea hederacea (IPOHE); set-up: key to percentage damage caused to the plant, IPOHE (five-point scale): 5=81-100%, 4=61-80%, 3=41-60%, 2=21-40%, 1=0-20% damage
# In short: as §1
# [11] = test system: Amaranthus palmeri (AMAPA); experiment: Post-emergence Test, Amaranthus palmeri (AMAPA); set-up: key: 5=81-100%, 4=61-80%, 3=41-60%, 2=21-40%, 1=0-20% damage
# In short: as §1
# [12] = test system: Amaranthus retoflexus (AMARE); experiment: Post-emergence Test, Amaranthus retoflexus (AMARE); set-up: key to percentage damage caused to the plant, AMARE (five-point scale): 5=81-100%, 4=61-80%, 3=41-60%, 2=21-40%, 1=0-20% damage
# In short: as §1
structure (smiles),measurement,setting,value
"Cn1c(Cn2ccc(Cl)n2)cc(=O)c(C(=O)O)c1-c1ccc(Cl)c(Cl)c1 [Compound 34, 6-[(3-chloropyrazol-1-yl)methyl]-2-(3,4-dichlorophenyl)-1-methyl-4-oxo-pyridine-3-carboxylic acid]","Pre-emergence Test SETFA, percentage damage caused to the plant (five-point scale)",Setaria faberi (SETFA) [1]; 1000 g/ha,5 (5=81-100%)
same,"Pre-emergence Test ECHCG, percentage damage caused to the plant (five-point scale)",[2]; 1000 g/ha,5 (5=81-100%)
same,"Pre-emergence Test ZEAMX, percentage damage caused to the plant (five-point scale)",Zea mays (ZEAMX) [3]; 1000 g/ha,0
same,"Pre-emergence Test IPOHE, percentage damage caused to the plant (five-point scale)",[4]; 1000 g/ha,0
same,"Pre-emergence Test AMAPA, percentage damage caused to the plant (five-point scale)",[5]; 1000 g/ha,1 (1=0-20%)
same,"Pre-emergence Test AMARE, percentage damage caused to the plant (five-point scale)",[6]; 1000 g/ha,0
same,"percentage damage caused to the plant, SETFA (five-point scale)",Setaria faberi (SETFA) [7]; 250 g/Ha,3 (3=41-60%)
same,"percentage damage caused to the plant, SETFA (five-point scale)",Setaria faberi (SETFA) [7]; 1000 g/ha,4 (4=61-80%)
same,"percentage damage caused to the plant, ECHCG (five-point scale)",[8]; 250 g/Ha,2 (2=21-40%)
same,"percentage damage caused to the plant, ECHCG (five-point scale)",[8]; 1000 g/ha,4 (4=61-80%)
same,"percentage damage caused to the plant, ZEAMX (five-point scale)",Zea mays (ZEAMX) [9]; 250 g/Ha,1 (1=0-20%)
same,"percentage damage caused to the plant, ZEAMX (five-point scale)",Zea mays (ZEAMX) [9]; 1000 g/ha,2 (2=21-40%)
same,"percentage damage caused to the plant, IPOHE (five-point scale)",[10]; 250 g/Ha,4 (4=61-80%)
same,"percentage damage caused to the plant, IPOHE (five-point scale)",[10]; 1000 g/ha,4 (4=61-80%)
same,"percentage damage caused to the plant, AMAPA (five-point scale)",[11]; 250 g/Ha,1 (1=0-20%)
same,"percentage damage caused to the plant, AMAPA (five-point scale)",[11]; 1000 g/ha,3 (3=41-60%)
same,"percentage damage caused to the plant, AMARE (five-point scale)",[12]; 250 g/Ha,1 (1=0-20%)
same,"percentage damage caused to the plant, AMARE (five-point scale)",[12]; 1000 g/ha,1 (1=0-20%)
"CCn1c(Cn2ncnc2OC)cc(=O)c(C(=O)O)c1-c1ccc(Cl)c(Cl)c1 [Compound 124, 2-(3,4-dichlorophenyl)-1-ethyl-6-[(5-methoxy-1,2,4-triazol-1-yl)methyl]-4-oxo-pyridine-3-carboxylic acid]","Pre-emergence Test SETFA, percentage damage caused to the plant (five-point scale)",Setaria faberi (SETFA) [1]; 250 g/Ha (*),0
same,"Pre-emergence Test ECHCG, percentage damage caused to the plant (five-point scale)",[2]; 250 g/Ha (*),0
same,"Pre-emergence Test ZEAMX, percentage damage caused to the plant (five-point scale)",Zea mays (ZEAMX) [3]; 250 g/Ha (*),0
same,"Pre-emergence Test IPOHE, percentage damage caused to the plant (five-point scale)",[4]; 250 g/Ha (*),0
same,"Pre-emergence Test AMAPA, percentage damage caused to the plant (five-point scale)",[5]; 250 g/Ha (*),1 (1=0-20%)
same,"Pre-emergence Test AMARE, percentage damage caused to the plant (five-point scale)",[6]; 250 g/Ha (*),1 (1=0-20%)
same,"percentage damage caused to the plant, SETFA (five-point scale)",Setaria faberi (SETFA) [7]; 250 g/Ha,2 (2=21-40%)
same,"percentage damage caused to the plant, ECHCG (five-point scale)",[8]; 250 g/Ha,4 (4=61-80%)
same,"percentage damage caused to the plant, ZEAMX (five-point scale)",Zea mays (ZEAMX) [9]; 250 g/Ha,1 (1=0-20%)
same,"percentage damage caused to the plant, IPOHE (five-point scale)",[10]; 250 g/Ha,0
same,"percentage damage caused to the plant, AMAPA (five-point scale)",[11]; 250 g/Ha,0
same,"percentage damage caused to the plant, AMARE (five-point scale)",[12]; 250 g/Ha,1 (1=0-20%)
"CCn1c(Cn2cc(C(F)(F)F)nc2C)cc(=O)c(C(=O)O)c1-c1ccc(Cl)c(Cl)c1 [Compound 103, 2-(3,4-dichlorophenyl)-1-ethyl-6-[[2-methyl-4-(trifluoromethyl)imidazol-1-yl]methyl]-4-oxo-pyridine-3-carboxylic acid]","Pre-emergence Test SETFA, percentage damage caused to the plant (five-point scale)",Setaria faberi (SETFA) [1]; 1000 g/ha,1 (1=0-20%)
same,"Pre-emergence Test ECHCG, percentage damage caused to the plant (five-point scale)",[2]; 1000 g/ha,1 (1=0-20%)
same,"Pre-emergence Test ZEAMX, percentage damage caused to the plant (five-point scale)",Zea mays (ZEAMX) [3]; 1000 g/ha,0
same,"Pre-emergence Test IPOHE, percentage damage caused to the plant (five-point scale)",[4]; 1000 g/ha,0
same,"Pre-emergence Test AMAPA, percentage damage caused to the plant (five-point scale)",[5]; 1000 g/ha,2 (2=21-40%)
same,"Pre-emergence Test AMARE, percentage damage caused to the plant (five-point scale)",[6]; 1000 g/ha,1 (1=0-20%)
same,"percentage damage caused to the plant, SETFA (five-point scale)",Setaria faberi (SETFA) [7]; 1000 g/ha,1 (1=0-20%)
same,"percentage damage caused to the plant, ECHCG (five-point scale)",[8]; 1000 g/ha,1 (1=0-20%)
same,"percentage damage caused to the plant, ZEAMX (five-point scale)",Zea mays (ZEAMX) [9]; 1000 g/ha,1 (1=0-20%)
same,"percentage damage caused to the plant, IPOHE (five-point scale)",[10]; 1000 g/ha,0
same,"percentage damage caused to the plant, AMAPA (five-point scale)",[11]; 1000 g/ha,1 (1=0-20%)
same,"percentage damage caused to the plant, AMARE (five-point scale)",[12]; 1000 g/ha,1 (1=0-20%)
"CCn1c(Cn2nc(C(F)(F)F)cc2C(F)(F)F)cc(=O)c(C(=O)O)c1-c1ccc(Cl)c(Cl)c1 [Compound 135, 6-[[3,5-bis(trifluoromethyl)pyrazol-1-yl]methyl]-2-(3,4-dichlorophenyl)-1-ethyl-4-oxo-pyridine-3-carboxylic acid]","Pre-emergence Test SETFA, percentage damage caused to the plant (five-point scale)",Setaria faberi (SETFA) [1]; 1000 g/ha,0
same,"Pre-emergence Test ECHCG, percentage damage caused to the plant (five-point scale)",[2]; 1000 g/ha,1 (1=0-20%)
same,"Pre-emergence Test ZEAMX, percentage damage caused to the plant (five-point scale)",Zea mays (ZEAMX) [3]; 1000 g/ha,1 (1=0-20%)
same,"Pre-emergence Test IPOHE, percentage damage caused to the plant (five-point scale)",[4]; 1000 g/ha,2 (2=21-40%)
same,"Pre-emergence Test AMAPA, percentage damage caused to the plant (five-point scale)",[5]; 1000 g/ha,0
same,"Pre-emergence Test AMARE, percentage damage caused to the plant (five-point scale)",[6]; 1000 g/ha,1 (1=0-20%)
same,"percentage damage caused to the plant, SETFA (five-point scale)",Setaria faberi (SETFA) [7]; 1000 g/ha,4 (4=61-80%)
same,"percentage damage caused to the plant, ECHCG (five-point scale)",[8]; 250 g/Ha,1 (1=0-20%)
same,"percentage damage caused to the plant, ZEAMX (five-point scale)",Zea mays (ZEAMX) [9]; 250 g/Ha,1 (1=0-20%)
same,"percentage damage caused to the plant, ZEAMX (five-point scale)",Zea mays (ZEAMX) [9]; 1000 g/ha,2 (2=21-40%)
same,"percentage damage caused to the plant, IPOHE (five-point scale)",[10]; 250 g/Ha,2 (2=21-40%)
same,"percentage damage caused to the plant, IPOHE (five-point scale)",[10]; 1000 g/ha,3 (3=41-60%)
same,"percentage damage caused to the plant, AMAPA (five-point scale)",[11]; 250 g/Ha,1 (1=0-20%)
same,"percentage damage caused to the plant, AMAPA (five-point scale)",[11]; 1000 g/ha,1 (1=0-20%)
same,"percentage damage caused to the plant, AMARE (five-point scale)",[12]; 250 g/Ha,1 (1=0-20%)
same,"percentage damage caused to the plant, AMARE (five-point scale)",[12]; 1000 g/ha,2 (2=21-40%)
"CCn1c(Cn2nc(Cl)cc2Cl)cc(=O)c(C(=O)O)c1-c1ccc(Cl)c(Cl)c1 [Compound 134, 2-(3,4-dichlorophenyl)-6-[(3,5-dichloropyrazol-1-yl)methyl]-1-ethyl-4-oxo-pyridine-3-carboxylic acid]","Pre-emergence Test SETFA, percentage damage caused to the plant (five-point scale)",Setaria faberi (SETFA) [1]; 250 g/Ha (*),5 (5=81-100%)
same,"Pre-emergence Test SETFA, percentage damage caused to the plant (five-point scale)",Setaria faberi (SETFA) [1]; 1000 g/ha,5 (5=81-100%)
same,"Pre-emergence Test ECHCG, percentage damage caused to the plant (five-point scale)",[2]; 250 g/Ha (*),4 (4=61-80%)
same,"Pre-emergence Test ECHCG, percentage damage caused to the plant (five-point scale)",[2]; 1000 g/ha,5 (5=81-100%)
same,"Pre-emergence Test ZEAMX, percentage damage caused to the plant (five-point scale)",Zea mays (ZEAMX) [3]; 250 g/Ha (*),0
same,"Pre-emergence Test ZEAMX, percentage damage caused to the plant (five-point scale)",Zea mays (ZEAMX) [3]; 1000 g/ha,4 (4=61-80%)
same,"Pre-emergence Test IPOHE, percentage damage caused to the plant (five-point scale)",[4]; 250 g/Ha (*),1 (1=0-20%)
same,"Pre-emergence Test IPOHE, percentage damage caused to the plant (five-point scale)",[4]; 1000 g/ha,4 (4=61-80%)
same,"Pre-emergence Test AMAPA, percentage damage caused to the plant (five-point scale)",[5]; 250 g/Ha (*),2 (2=21-40%)
same,"Pre-emergence Test AMAPA, percentage damage caused to the plant (five-point scale)",[5]; 1000 g/ha,4 (4=61-80%)
same,"Pre-emergence Test AMARE, percentage damage caused to the plant (five-point scale)",[6]; 250 g/Ha (*),1 (1=0-20%)
same,"Pre-emergence Test AMARE, percentage damage caused to the plant (five-point scale)",[6]; 1000 g/ha,2 (2=21-40%)
same,"percentage damage caused to the plant, SETFA (five-point scale)",Setaria faberi (SETFA) [7]; 250 g/Ha,4 (4=61-80%)
same,"percentage damage caused to the plant, SETFA (five-point scale)",Setaria faberi (SETFA) [7]; 1000 g/ha,4 (4=61-80%)
same,"percentage damage caused to the plant, ECHCG (five-point scale)",[8]; 250 g/Ha,3 (3=41-60%)
same,"percentage damage caused to the plant, ECHCG (five-point scale)",[8]; 1000 g/ha,4 (4=61-80%)
same,"percentage damage caused to the plant, ZEAMX (five-point scale)",Zea mays (ZEAMX) [9]; 250 g/Ha,2 (2=21-40%)
same,"percentage damage caused to the plant, ZEAMX (five-point scale)",Zea mays (ZEAMX) [9]; 1000 g/ha,3 (3=41-60%)
same,"percentage damage caused to the plant, IPOHE (five-point scale)",[10]; 250 g/Ha,4 (4=61-80%)
same,"percentage damage caused to the plant, IPOHE (five-point scale)",[10]; 1000 g/ha,3 (3=41-60%)
same,"percentage damage caused to the plant, AMAPA (five-point scale)",[11]; 250 g/Ha,1 (1=0-20%)
same,"percentage damage caused to the plant, AMAPA (five-point scale)",[11]; 1000 g/ha,4 (4=61-80%)
same,"percentage damage caused to the plant, AMARE (five-point scale)",[12]; 250 g/Ha,2 (2=21-40%)
same,"percentage damage caused to the plant, AMARE (five-point scale)",[12]; 1000 g/ha,4 (4=61-80%)
